For this assay, the target named is nsp14 methyltransferase from SARS-CoV-2 (Severe acute respiratory syndrome coronavirus 2, UniProt P0DTD1). Kind of assay: Nsp14 MTase activity inhibition in vitro (EchoMS assay). The conditions noted are these: recombinant nsp14 protein expressed in E. coli; dose-response curve. The class given is biochemical.

The values below come from patent EP4553080A1, “NUCLEOSIDE DERIVATIVES AS ANTIVIRAL AGENTS AGAINST CORONAVIRUSES” (Ustav Organicke Chemie a Biochemie AV CR, v.v.i., priority 2023, dated 2025).

By IC50 is commonly meant the midpoint of a concentration-inhibition curve. As for `Cc1ncn(-c2ccccc2)c1CSC[C@H]1O[C@@H](n2ccc3c(N)ncnc32)[C@H](O)[C@@H]1O` [Compound 61c, (2R,3R,4S,5S)-2-(4-Amino-7H-pyrrolo[2,3-d]pyrimidin-7-yl)-5-((((4-methyl-1-phenyl-1H-imidazol-5-yl)methyl)thio)methyl)tetrahydrofuran-3,4-diol], the IC50 is 100 to 500 nM.
The result for `COc1ccc(-c2nc(C)c(CSC[C@H]3O[C@@H](n4ccc5c(N)ncnc54)[C@H](O)[C@@H]3O)c(-c3ccccc3)n2)cc1OC` [Compound 119c, (2R,3R,4S,5S)-2-(4-Amino-7H-pyrrolo[2,3-d]pyrimidin-7-yl)-5-((((2-(3,4-dimethoxyphenyl)-4-methyl-6-phenylpyrimidin-5-yl)methyl)thio)methyl)tetrahydrofuran-3,4-diol] reads 30 to 100 nM; that for `Cc1noc(-c2ccccc2)c1CSC[C@H]1O[C@@H](n2cc(Sc3ccccc3)c3c(N)ncnc32)[C@H](O)[C@@H]1O` [Compound 189b, (2R,3R,4S,5S)-2-(4-Amino-5-(phenylthio)-7H-pyrrolo[2,3-d]pyrimidin-7-yl)-5-((((3-methyl-5-phenylisoxazol-4-yl)methyl)thio)methyl)tetrahydrofuran-3,4-diol], 30 to 100 nM; that for `Cc1noc(-c2ccccc2)c1CSC[C@H]1O[C@@H](n2cc(C#Cc3cccc4ccccc34)c3c(N)ncnc32)[C@H](O)[C@@H]1O` [Compound 175b, (2R,3R,4S,5S)-2-(4-Amino-5-(naphthalen-1-ylethynyl)-7H-pyrrolo[2,3-d]pyrimidin-7-yl)-5-((((3-methyl-5-phenylisoxazol-4-yl)methyl)thio)methyl)tetrahydrofuran-3,4-diol], 500 to 2000 nM.
The result for `Cc1noc(-c2ccccc2)c1CSC[C@H]1O[C@@H](n2cc(CCCC#N)c3c(N)ncnc32)[C@H](O)[C@@H]1O` [Compound 137b, 4-(4-Amino-7-((2R,3R,4S,5S)-3,4-dihydroxy-5-((((3-methyl-5-phenylisoxazol-4-yl)methyl)thio)methyl)tetrahydrofuran-2-yl)-7H-pyrrolo[2,3-d]pyrimidin-5-yl)butanenitrile] reads 10 to 30 nM; that for `Cc1noc(-c2ccccc2)c1CSC[C@H]1O[C@@H](n2cc(C#Cc3cncnc3)c3c(N)ncnc32)[C@H](O)[C@@H]1O` [Compound 172b], 10 to 30 nM; that for `C#Cc1cn([C@@H]2O[C@H](CSCc3c(C)noc3-c3ccccc3)[C@@H](O)[C@H]2O)c2ncnc(N)c12` [Compound 140b, (2R,3R,4S,5S)-2-(4-Amino-5-ethynyl-7H-pyrrolo[2,3-d]pyrimidin-7-yl)-5-((((3-methyl-5-phenylisoxazol-4-yl)methyl)thio)methyl)tetrahydrofuran-3,4-diol], 30 to 100 nM.
The result for `Cc1noc(-c2ccccc2)c1CSC[C@H]1O[C@@H](n2cc(SCc3ccccc3)c3c(N)ncnc32)[C@H](O)[C@@H]1O` [Compound 190b, (2R,3R,4S,5S)-2-(4-Amino-5-(benzylthio)-7H-pyrrolo[2,3-d]pyrimidin-7-yl)-5-((((3-methyl-5-phenylisoxazol-4-yl)methyl)thio)methyl)tetrahydrofuran-3,4-diol] reads 100 to 500 nM; that for `CCc1cn([C@@H]2O[C@H](CSCc3c(C)noc3-c3ccccc3)[C@@H](O)[C@H]2O)c2ncnc(N)c12` [Compound 142, (2R,3R,4S,5S)-2-(4-Amino-5-ethyl-7H-pyrrolo[2,3-d]pyrimidin-7-yl)-5-((((3-methyl-5-phenylisoxazol-4-yl)methyl)thio)methyl)tetrahydrofuran-3,4-diol], 30 to 100 nM.
As for `Cc1nsc(-c2ccccc2)c1CSC[C@H]1O[C@@H](n2cc(I)c3c(N)ncnc32)[C@H](O)[C@@H]1O` [Compound 245, (2R,3R,4S,5S)-2-(4-Amino-5-iodo-7H-pyrrolo[2,3-d]pyrimidin-7-yl)-5-((((3-methyl-5-phenylisothiazol-4-yl)methyl)thio)methyl)tetrahydrofuran-3,4-diol], the IC50 is 30 to 100 nM.
The result for `Cc1noc(-c2ccccc2)c1CSC[C@H]1O[C@@H](n2cc(Cc3ccccc3)c3c(N)ncnc32)[C@H](O)[C@@H]1O` [Compound 185b, (2R,3R,4S,5S)-2-(4-Amino-5-benzyl-7H-pyrrolo[2,3-d]pyrimidin-7-yl)-5-((((3-methyl-5-phenylisoxazol-4-yl)methyl)thio)methyl)tetrahydrofuran-3,4-diol] reads 100 to 500 nM.
Consider `Cc1noc(C2CCCCC2)c1CSC[C@H]1O[C@@H](n2ccc3c(N)ncnc32)[C@H](O)[C@@H]1O` [Compound 98c, (2R,3R,4S,5S)-2-(4-Amino-7H-pyrrolo[2,3-d]pyrimidin-7-yl)-5-((((5-cyclohexyl-3-methylisoxazol-4-yl)methyl)thio)methyl)tetrahydrofuran-3,4-diol], for which the IC50 was in the range of 500 to 2000 nM.
The result for `Cc1noc(-c2ccccc2)c1CSC[C@H]1O[C@@H](n2cc(-c3ccc(C#N)cc3)c3c(N)ncnc32)[C@H](O)[C@@H]1O` [Compound 143b, 4-(4-Amino-7-((2R,3R,4S,5S)-3,4-dihydroxy-5-((((3-methyl-5-phenylisoxazol-4-yl)methyl)thio)methyl)tetrahydrofuran-2-yl)-7H-pyrrolo[2,3-d]pyrimidin-5-yl)benzonitrile] reads 10 to 30 nM; that for `Cc1noc(-c2ccccc2)c1CSC[C@H]1O[C@@H](n2cc(CCc3ccccc3)c3c(N)ncnc32)[C@H](O)[C@@H]1O` [Compound 184, (2R,3R,4S,5S)-2-(4-Amino-5-phenethyl-7H-pyrrolo[2,3-d]pyrimidin-7-yl)-5-((((3-methyl-5-phenylisoxazol-4-yl)methyl)thio)methyl)tetrahydrofuran-3,4-diol], 100 to 500 nM.
The result for `Cc1noc(-c2cscn2)c1CSC[C@H]1O[C@@H](n2ccc3c(N)ncnc32)[C@H](O)[C@@H]1O` [Compound 101c, (2R,3R,4S,5S)-2-(4-Amino-7H-pyrrolo[2,3-d]pyrimidin-7-y1)-5-((((3-methyl-5-(thiazol-4-y1)isoxazo1-4-yl)methyl)thio)methyl)tetrahydrofuran-3,4-diol] reads 30 to 100 nM; that for `Cc1nc(N)c2ccn([C@@H]3O[C@H](CSCc4c(C)noc4-c4ccccc4)[C@@H](O)[C@H]3O)c2n1` [Compound 208, (2R,3R,4S,5S)-2-(4-Amino-2-methyl-7H-pyrrolo[2,3-d]pyrimidin-7-yl)-5-((((3-methyl-5-phenylisoxazol-4-yl)methyl)thio)methyl)tetrahydrofuran-3,4-diol], 30 to 100 nM; that for `Cc1ccnc(-c2ccccc2)c1CSC[C@H]1O[C@@H](n2ccc3c(N)ncnc32)[C@H](O)[C@@H]1O` [Compound 62c, (2R,3R,4S,5S)-2-(4-Amino-7H-pyrrolo[2,3-d]pyrimidin-7-yl)-5-((((4-methyl-2-phenylpyridin-3-yl)methyl)thio)methyl)tetrahydrofuran-3,4-diol], 500 to 2000 nM.
The result for `Cc1noc(-c2ccccc2)c1CSC[C@H]1O[C@@H](n2cc(C#N)c3c(N)ncnc32)[C@H](O)[C@@H]1O` [Compound 138b, 4-Amino-7-((2R,3R,4S,5S)-3,4-dihydroxy-5-((((3-methyl-5-phenylisoxazol-4-yl)methyl)thio)methyl)tetrahydrofuran-2-yl)-7H-pyrrolo[2,3-d]pyrimidine-5-carbonitrile] reads 30 to 100 nM.
